According to US9856279B2 (AGIOS PHARMACEUTICALS, INC, priority 2011, dated 2018):

Assays:
IDH1 R132H = IDH1 R132H (Homo sapiens, UniProt O75874, R132H); test: Assay for IDH1 R132H inhibitors (NADPH/aKG, resazurin detection); format: biochemical; details: enzyme assay of Example 12; read-out: IDH1R132H IC50
In short: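 Compound added to substrate mix (8 uM NADPH, 2 mM aKG), then enzyme mix (0.2 μg/ml IDH1 R132H); 50 min RT in 20 mM Tris pH 7.5, 150 mM NaCl, 10 mM MgCl2, 0.03% BSA. Resazurin detection mix (30 μM) 5 min RT; resorufin fluorescence Ex544/Em590.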

HT1080 cells = test: Cellular assay for IDH1m inhibitors: inhibition of 2-HG production (LC-MS, 48 hours) in HT1080 cells; format: cell-based; details: Homo sapiens, HT-1080; inhibition of 2-HG production, HT1080 cells; read-out: HT1080 IC50
In short: (§1)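 Cells were seeded at 5000/well in DMEM with 10% FBS, incubated overnight, then treated with compound (0.2% DMSO final) for 48 h at 37° C. Medium 2-HG was quantified by LC-MS. IC50 is the concentration reducing 2-HG by 50% versus DMSO control, and CellTiter-Glo viability was read at 72 h.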

U87MG cells = test: Cellular assay for IDH1m inhibitors: inhibition of 2-HG production (LC-MS, 48 hours) in U87MG cells; format: cell-based; details: Homo sapiens, U-87 MG, inhibition of 2-HG production, U87R132H cells; read-out: U87R132H IC50
In short: as §1

Sequence of IDH1 R132H (O75874 whole entry R132H): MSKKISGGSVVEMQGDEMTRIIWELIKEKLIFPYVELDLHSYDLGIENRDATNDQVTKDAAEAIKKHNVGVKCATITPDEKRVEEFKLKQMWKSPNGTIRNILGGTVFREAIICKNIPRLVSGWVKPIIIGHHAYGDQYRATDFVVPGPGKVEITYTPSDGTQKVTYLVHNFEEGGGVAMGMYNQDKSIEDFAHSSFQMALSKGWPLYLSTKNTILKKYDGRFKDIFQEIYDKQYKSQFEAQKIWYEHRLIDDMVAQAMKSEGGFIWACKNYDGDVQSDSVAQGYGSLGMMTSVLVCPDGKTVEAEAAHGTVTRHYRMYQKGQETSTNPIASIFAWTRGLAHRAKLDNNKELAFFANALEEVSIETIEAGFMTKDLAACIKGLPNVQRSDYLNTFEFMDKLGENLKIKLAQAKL

Row | SMILES | IC50 (IDH1 R132H) | IC50 (HT1080 cells) | IC50 (U87MG cells)
1 | COCCC(=O)N1CCN(c2nc(C3CC3)c(-c3cccc(NS(C)(=O)=O)c3)c(C)c2C#N)C[C@H]1C [Compound 350, (R)—N-(3-{5-cyano-2-cyclopropyl-6-[4-(3-methoxy-propionyl)-3-methyl-piperazin-1-yl]-4-methyl-pyridin-3-yl}-phenyl)-methane sulfonamide] | < 500 nM | 1000 to 10000 nM | 500 to 1000 nM
2 | COCCC(=O)N1CCN(c2nc(C3CC3)c(-c3cccc(NC(=O)[C@H](C)Cl)c3)cc2C#N)C[C@H]1C [Compound 447, (S)-2-chloro-N-(3-(5-cyano-2-cyclopropyl-6-((R)-4-(3-methoxypropanoyl)-3-methylpiperazin-1-yl)pyridin-3-yl)phenyl)propanamide] | 500 to 1000 nM | 1000 to 10000 nM | 1000 to 10000 nM
3 | C=Cc1cnc2c(-c3cc(C#N)c(N4CCN(C(=O)CCO)[C@H](C)C4)nc3C3CC3)cccc2n1 [Compound 618, (R)-6-cyclopropyl-2-(4-(3-hydroxypropanoyl)-3-methylpiperazin-1-yl)-5-(2-vinylquinoxalin-5-yl)nicotinonitrile] | < 500 nM | < 500 nM | < 500 nM
4 | COCCC(=O)N1CCN(c2nc(C3CC3)c(O[C@H](C)c3ccccc3)cc2C#N)C[C@H]1C [Compound 307, 6-cyclopropyl-2-((R)-4-(3-methoxypropanoyl)-3-methylpiperazin-1-yl)-5-((R)-1-phenylethoxy)nicotinonitrile] | < 500 nM | 1000 to 10000 nM | 1000 to 10000 nM
5 | C=Cc1ccc2c(-c3cc(C#N)c(N4CCN(C(=O)CCO)[C@H](C5CC5)C4)nc3C3CC3)cncc2n1 [Compound 735, (R)-6-cyclopropyl-2-(3-cyclopropyl-4-(3-hydroxypropanoyl)piperazin-1-yl)-5-(2-vinyl-1,7-naphthyridin-5-yl)nicotinonitrile] | < 500 nM | < 500 nM | < 500 nM
6 | N#Cc1cc(-c2cccc3nc(O)ccc23)c(C2CC2)nc1N1CCN(C(=O)C2CC2)[C@H](C2CC2)C1 [Compound 476, (R)-2-(4-(cyclopropanecarbonyl)-3-cyclopropylpiperazin-1-yl)-6-cyclopropyl-5-(2-hydroxyquinolin-5-yl)nicotinonitrile] | < 500 nM | 500 to 1000 nM | < 500 nM
7 | COCCC(=O)N1CCN(c2nc(C3CC3)c(Nc3ccnc(C#N)c3)cc2C#N)C[C@H]1C [Compound 660, (R)-4-(5-cyano-2-cyclopropyl-6-(4-(3-methoxypropanoyl)-3-methylpiperazin-1-yl)pyridin-3-ylamino)picolinonitrile] | < 500 nM | < 500 nM | < 500 nM
8 | C=Cc1cc(-c2cc(C#N)c(N3CCN(C(=O)COC)[C@H](C4CC4)C3)nc2C2CC2)c2ccncc2n1 [Compound 717, (R)-6-cyclopropyl-2-(3-cyclopropyl-4-(2-methoxyacetyl)piperazin-1-yl)-5-(2-vinyl-1,7-naphthyridin-4-yl)nicotinonitrile] | < 500 nM | < 500 nM | < 500 nM
9 | C=Cc1cnnc(-c2c(C3CC3)nc(N3CCN(C(=O)/C=C/CCO)[C@H](C4CC4)C3)c(C#N)c2C)c1 [Compound 769, (R,E)-6-cyclopropyl-2-(3-cyclopropyl-4-(5-hydroxypent-2-enoyl)piperazin-1-yl)-4-methyl-5-(5-vinylpyridazin-3-yl)nicotinonitrile] | < 500 nM | < 500 nM | < 500 nM
10 | C=Cc1cc(-c2cc(C#N)c(N3CCN(C(=O)CCOC)[C@H](C4CC4)C3)nc2C2CC2)c2cccnc2n1 [Compound 645, (R)-6-cyclopropyl-2-(3-cyclopropyl-4-(3-methoxypropanoyl)piperazin-1-yl)-5-(2-vinyl-1,8-naphthyridin-4-yl)nicotinonitrile] | < 500 nM | < 500 nM | < 500 nM
11 | C=Cc1cnnc(-c2cc(C#N)c(N3CCN(C(=O)COC)[C@H](C4CC4)C3)nc2C2CC2)c1 [Compound 724, (R)-6-cyclopropyl-2-(3-cyclopropyl-4-(2-methoxyacetyl)piperazin-1-yl)-5-(5-vinylpyridazin-3-yl)nicotinonitrile] | < 500 nM | < 500 nM | < 500 nM

Other lines, results leading:

Row | IC50 (IDH1 R132H) | IC50 (HT1080 cells) | IC50 (U87MG cells) | SMILES
12 | < 500 nM | < 500 nM | < 500 nM | C=Cc1cc(-c2c(C3CC3)nc(N3CCN(C(=O)CC4CCC(=O)O4)[C@H](C4CC4)C3)c(C#N)c2C)ccn1 (stereo partly drawn) [Compound 806, 2-cyclopropyl-6-((3R)-3-cyclopropyl-4-(2-(5-oxotetrahydrofuran-2-yl)acetyl)piperazin-1-yl)-4-methyl-2′-vinyl-[3,4′-bipyridine]-5-carbonitrile]
13 | < 500 nM | < 500 nM | < 500 nM | N#Cc1cc(Nc2ccnc(Cl)c2)c(C2CC2)nc1N1CCN(C(=O)C[C@H]2CCO2)[C@H](C2CC2)C1 [Compound 748, 5-(2-chloropyridin-4-ylamino)-6-cyclopropyl-2-((R)-3-cyclopropyl-4-(2-((R)-oxetan-2-yl)acetyl)piperazin-1-yl)nicotinonitrile]
14 | < 500 nM | < 500 nM | < 500 nM | C=Cc1cc(-c2cc(C#N)c(N3CCN(C(=O)CCO)[C@H](C)C3)nc2C2CC2)c2cccnc2n1 [Compound 625, (R)-6-cyclopropyl-2-(4-(3-hydroxypropanoyl)-3-methylpiperazin-1-yl)-5-(2-vinyl-1,8-naphthyridin-4-yl)nicotinonitrile]
15 | < 500 nM | 1000 to 10000 nM | 500 to 1000 nM | COCCC(=O)N1CCN(c2nc(C3CC3)c(-c3cccc4[nH]ncc34)cc2C#N)C[C@H]1C [Compound 438, (R)-6-cyclopropyl-5-(1H-indazol-4-yl)-2-[4-(3-methoxy-propionyl)-3-methyl-piperazin-1-yl]-nicotinonitrile]
16 | 500 to 1000 nM | 1000 to 10000 nM | 1000 to 10000 nM | COCCC(=O)N1CCN(c2nc(C3CC3)c(-c3ccc4ccccc4c3)c(C)c2C#N)C[C@H]1C [Compound 267, (R)-6-cyclopropyl-2-(4-(3-methoxypropanoyl)-3-methylpiperazin-1-yl)-4-methyl-5-(naphthalen-2-yl)nicotinonitrile]
17 | < 500 nM | 1000 to 10000 nM | 1000 to 10000 nM | COCCC(=O)N1CCN(c2nc(C3CC3)c(-c3cccc(F)c3)c(C)c2C#N)C[C@H]1C [Compound 265, (R)-6-cyclopropyl-5-(3-fluorophenyl)-2-(4-(3-methoxypropanoyl)-3-methylpiperazin-1-yl)-4-methylnicotinonitrile]
18 | < 500 nM | < 500 nM | < 500 nM | C=Cc1cc(Nc2cc(C#N)c(N3CCN(C(=O)CCO)[C@H](C)C3)nc2C2CC2)c2ccncc2n1 [Compound 698, (R)-6-cyclopropyl-2-(4-(3-hydroxypropanoyl)-3-methylpiperazin-1-yl)-5-((2-vinyl-1,7-naphthyridin-4-yl)amino)nicotinonitrile]
19 | < 500 nM | < 500 nM | < 500 nM | C=Cc1cc(N(C)c2cc(C#N)c(N3CCN(C(=O)CCO)[C@H](C4CC4)C3)nc2C2CC2)ccn1 [Compound 730, (R)-6-cyclopropyl-2-(3-cyclopropyl-4-(3-hydroxypropanoyl)piperazin-1-yl)-5-(methyl(2-vinylpyridin-4-yl)amino)nicotinonitrile]
